Source: US20230025510A1, “BIARYL ETHER-TYPE QUINAZOLINE DERIVATIVES” (DAIICHI SANKYO COMPANY, LIMITED, priority 2018, published 2023)

How the values were obtained:
Format in all cases: cell-based
Ba/F3-Mock cells = assay: Cell proliferation suppression test (CellTiter-Glo, GI50), Ba/F3-Mock; details: Mus musculus, BaF3, 72 h, 5 ng/mL IL-3, 3 days, N=4
Procedure: (§1) Cell proliferation suppression test Ba/F3-Mock, Ba/F3-EGFR WT, Ba/F3-EGFR ins. ASV, and Ba/F3-EGFR ins. SVD cell lines were cultured based on a culture medium of 10% FBS-containing RPMI 1640 supplemented with 1.5 ug/mL puromycin, and 5 ng/mL IL-3 and 100 ng/mL of EGF were further added to the culture solution for Ba/F3-Mock and Ba/F3-EGFR WT, respectively. The cells were cultured in a CO2 incubator set at 37° C., 5% CO2. Specimens prepared by dilution were seeded into 384-well tissue culture plates with Echo555 (Labcyte Inc.), and the cells were seeded thereto at 400 cells/well for Ba/F3-Mock, Ba/F3-EGFR WT, and Ba/F3-EGFR ins. SVD and at 200 cells/well for Ba/F3-EGFR ins. ASV (day 0), then they were cultured for an additional 3 days. On the day of the compound addition (day 0) and 3 days after the compound addition (day 3), ATP quantity was measured with CellTiter-Glo (registered trademark) 2.0 (Promega Corporation.), and used as an indicator of cell quantity (N=4). In the test, puromycin-free culture medium was used. Concentrations at which cell proliferation from day 0 to day 3 was inhibited by 50% (GIso) were calculated with EXCEL.

Ba/F3-EGFR WT cells = assay: Cell proliferation suppression test (CellTiter-Glo, GI50), Ba/F3-EGFR WT; details: Mus musculus, 72 h, 100 ng/mL EGF, 3 days, N=4
Procedure: as §1

[1] = tested on: Ba/F3-EGFR ins. ASV cells; assay: Cell proliferation suppression test (CellTiter-Glo, GI50), Ba/F3-EGFR ins. ASV; details: Mus musculus, 72 h, 3 days, N=4
Procedure: as §1

[2] = tested on: Ba/F3-EGFR ins. SVD cells; assay: Cell proliferation suppression test (CellTiter-Glo, GI50), Ba/F3-EGFR ins. SVD; details: Mus musculus, 72 h, 3 days, N=4
Procedure: as §1

Compound | GI50 (Ba/F3-Mock cells) | GI50 (Ba/F3-EGFR WT cells) | GI50 [1] | GI50 [2]
COc1cc2ncnc(Nc3ccc(Oc4nn(CC(=O)NC(C)(C)C)cc4F)cc3Cl)c2cc1NC(=O)/C=C/CN1CCC(F)C1 (racemic) [Example 55, rac-(2E)-N-{4-[4-({1-[2-(tert-Butylamino)-2-oxoethyl]-4-fluoro-1H-pyrazol-3-yl}oxy)-2-chloroanilino]-7-methoxyquinazolin-6-yl}-4-(3-fluoropyrrolidin-1-yl)but-2-enamide] | 4290 nM | 441 nM | 12.9 nM | 10.3 nM
COc1cc2ncnc(Nc3ccc(Oc4nn(CC(=O)NC(C)(C)C)cc4F)cc3F)c2cc1NC(=O)/C=C/CN1CCC(F)C1 (racemic) [Example 58, rac-(2E)-N-{4-[4-({1-[2-(tert-Butylamino)-2-oxoethyl]-4-fluoro-1H-pyrazol-3-yl}oxy)-2-fluoroanilino]-7-methoxyquinazolin-6-yl}-4-(3-fluoropyrrolidin-1-yl)but-2-enamide] | 4010 nM | 252 nM | 10.3 nM | 6.7 nM
C=CC(=O)N1CCC(Oc2cc3c(Nc4ccc(Oc5cccc(C(=O)NC(C)(C)C)c5)cc4F)ncnc3cc2OC)CC1 [Example 1, N-tert-Butyl-3-{3-fluoro-4-[(7-methoxy-6-{[1-(prop-2-enoyl)piperidin-4-yl]oxy}quinazolin-4-yl)amino]phenoxy}benzamide] | 7900 nM | 115 nM | 15.5 nM | 8.9 nM
C=CC(=O)N1CCC(Oc2cc3c(Nc4ccc(Oc5cccc(-c6cn(C)nn6)c5)cc4F)ncnc3cc2OC)CC1 [Example 2] | 9530 nM | 123 nM | 13.9 nM | 13.7 nM
C=CC(=O)N1CCC(Oc2cc3c(Nc4ccc(Oc5cccc(-c6cn(C)nn6)c5)cc4Cl)ncnc3cc2OC)CC1 [Example 3, 1-{4-[(4-{2-Chloro-4-[3-(1-methyl-1H-1,2,3-triazol-4-yl)phenoxy]anilino}-7-methoxyquinazolin-6-yl)oxy]piperidin-1-yl}prop-2-en-1-one] | 9930 nM | 370 nM | 40.6 nM | 30 nM
C=CC(=O)N1CCC(Oc2cc3c(Nc4ccc(Oc5ccn(C(=O)NC(C)(C)C)n5)cc4F)ncnc3cc2OC)CC1 [Example 4, N-tert-Butyl-3-{3-fluoro-4-[(7-methoxy-6-{[1-(prop-2-enoyl)piperidin-4-yl]oxy}quinazolin-4-yl)amino]phenoxy}-1H-pyrazole-1-carboxamide] | 7610 nM | 78.3 nM | 7.4 nM | 5 nM
C=CC(=O)N1CCC(Oc2cc3c(Nc4ccc(Oc5ccn(C(=O)NC(C)(C)CF)n5)cc4F)ncnc3cc2OC)CC1 [Example 5, 3-{3-Fluoro-4-[(7-methoxy-6-{[1-(prop-2-enoyl)piperidin-4-yl]oxy}quinazolin-4-yl)amino]phenoxy}-N-(1-fluoro-2-methylpropan-2-yl)-1H-pyrazole-1-carboxamide] | > 10000 nM | 77.1 nM | 5.4 nM | 4.3 nM
C=CC(=O)N1CCC(Oc2cc3c(Nc4ccc(Oc5ccn(C(=O)NC(C)C)n5)cc4F)ncnc3cc2OC)CC1 [Example 6, 3-{3-Fluoro-4-[(7-methoxy-6-{[1-(prop-2-enoyl)piperidin-4-yl]oxy}quinazolin-4-yl)amino]phenoxy}-N-(propan-2-yl)-1H-pyrazole-1-carboxamide] | 5660 nM | 175 nM | 19.2 nM | 19.2 nM
C=CC(=O)N1CCC(Oc2cc3c(Nc4cc(F)c(Oc5ccn(C(=O)NC(C)(C)C)n5)cc4F)ncnc3cc2OC)CC1 [Example 7, N-tert-Butyl-3-{2,5-difluoro-4-[(7-methoxy-6-{[1-(prop-2-enoyl)piperidin-4-yl]oxy}quinazolin-4-yl)amino]phenoxy}-1H-pyrazole-1-carboxamide] | 5900 nM | 191 nM | 39.4 nM | 19.6 nM
C=CC(=O)N1CCC(Oc2cc3c(Nc4ccc(Oc5ccn(C(=O)NC6(C)CC6)n5)cc4F)ncnc3cc2OC)CC1 [Example 8, 3-{3-Fluoro-4-[(7-methoxy-6-{[1-(prop-2-enoyl)piperidin-4-yl]oxy}quinazolin-4-yl)amino]phenoxy}-N-(1-methylcyclopropyl)-1H-pyrazole-1-carboxamide] | 7160 nM | 172 nM | 19.8 nM | 19.7 nM
C=CC(=O)N1CCC(Oc2cc3c(Nc4ccc(Oc5ccn(-c6ccnc(OC)c6)n5)cc4F)ncnc3cc2OC)CC1 [Example 9, 1-(4-{[4-(2-Fluoro-4-{[1-(2-methoxypyridin-4-yl)-1H-pyrazol-3-yl]oxy}anilino)-7-methoxyquinazolin-6-yl]oxy}piperidin-1-yl)prop-2-en-1-one] | 9590 nM | 280 nM | 17.1 nM | 15.3 nM
C=CC(=O)N1CCC(Oc2cc3c(Nc4ccc(Oc5ccn(-c6cnc(C7CC7)nc6)n5)cc4F)ncnc3cc2OC)CC1 [Example 10, 1-(4-{[4-(4-{[1-(2-cyclopropylpyrimidin-5-yl)-1H-pyrazol-3-yl]oxy}-2-fluoroanilino)-7-methoxyquinazolin-6-yl]oxy}piperidin-1-yl)prop-2-en-1-one] | 6170 nM | 212 nM | 11.9 nM | 7.6 nM
C=CC(=O)N1CCC(Oc2cc3c(Nc4ccc(Oc5nc(-c6cnc(C)c(F)c6)cs5)cc4F)ncnc3cc2OC)CC1 [Example 11, 1-(4-{[4-(2-Fluoro-4-{[4-(5-fluoro-6-methylpyridin-3-yl)-1,3-thiazol-2-yl]oxy}anilino)-7-methoxyquinazolin-6-yl]oxy}piperidin-1-yl)prop-2-en-1-one] | > 10000 nM | 290 nM | 11.3 nM | 12.5 nM
C=CC(=O)N1CCC(Oc2cc3c(Nc4ccc(Oc5nc(-c6cnc(C)c(Cl)c6)cs5)cc4F)ncnc3cc2OC)CC1 [Example 12, 1-(4-{[4-(4-{[4-(5-Chloro-6-methylpyridin-3-yl)-1,3-thiazol-2-yl]oxy}-2-fluoroanilino)-7-methoxyquinazolin-6-yl]oxy}piperidin-1-yl)prop-2-en-1-one] | > 10000 nM | 646 nM | 44.8 nM | 29.8 nM
C=CC(=O)N1CCC(Oc2cc3c(Nc4ccc(Oc5cccc(-c6nnc(C)o6)c5)cc4Cl)ncnc3cc2OC)CC1 [Example 13, 1-{4-[(4-{2-Chloro-4-[3-(5-methyl-1,3,4-oxadiazol-2-yl)phenoxy]anilino}-7-methoxyquinazolin-6-yl)oxy]piperidin-1-yl}prop-2-en-1-one] | 8280 nM | 854 nM | 44.5 nM | 54.1 nM
C=CC(=O)N1CCC(Oc2cc3c(Nc4ccc(Oc5ccn(-c6cnc(OC)nc6)n5)cc4F)ncnc3cc2OC)CC1 [Example 14, 1-(4-{[4-(2-Fluoro-4-{[1-(2-methoxypyrimidin-5-yl)-1H-pyrazol-3-yl]oxy}anilino)-7-methoxyquinazolin-6-yl]oxy}piperidin-1-yl)prop-2-en-1-one] | 5950 nM | 429 nM | 13.7 nM | 13.5 nM
C=CC(=O)N1CCC(Oc2cc3c(Nc4ccc(Oc5nc(C(=O)NC(C)(C)C)cs5)cc4F)ncnc3cc2OC)CC1 [Example 15, N-tert-Butyl-2-{3-fluoro-4-[(7-methoxy-6-{[1-(prop-2-enoyl)piperidin-4-yl]oxy}quinazolin-4-yl)amino]phenoxy}-1,3-thiazole-4-carboxamide] | > 10000 nM | 77.3 nM | 12.2 nM | 5.5 nM
C=CC(=O)N1CCC(Oc2cc3c(Nc4ccc(Oc5nc(-c6cnc(OC)nc6)cs5)cc4F)ncnc3cc2OC)CC1 [Example 16, 1-(4-{[4-(2-Fluoro-4-{[4-(2-methoxypyrimidin-5-yl)-1,3-thiazol-2-yl]oxy}anilino)-7-methoxyquinazolin-6-yl]oxy}piperidin-1-yl)prop-2-en-1-one] | > 10000 nM | 320 nM | 11.4 nM | 11.3 nM
C=CC(=O)N1CCC(Oc2cc3c(Nc4ccc(Oc5cccc(-c6nnc(C)o6)c5)cc4F)ncnc3cc2OC)CC1 [Example 17, 1-{4-[(4-{2-Fluoro-4-[3-(5-methyl-1,3,4-oxadiazol-2-yl)phenoxy]anilino}-7-methoxyquinazolin-6-yl)oxy]piperidin-1-yl}prop-2-en-1-one] | 8220 nM | 186 nM | 10.3 nM | 8 nM
C=CC(=O)N1CCC(Oc2cc3c(Nc4ccc(Oc5cccc(-c6nnc(C)o6)c5)cc4F)ncnc3cc2OCC)CC1 [Example 18, 1-{4-[(7-Ethoxy-4-{2-fluoro-4-[3-(5-methyl-1,3,4-oxadiazol-2-yl)phenoxy]anilino}quinazolin-6-yl)oxy]piperidin-1-yl}prop-2-en-1-one] | 4660 nM | 158 nM | 12.2 nM | 12.2 nM
